We go through four compounds from US7090874B2, “Ligand for peroxisome proliferator-activated receptor” (Kaneka Corporation, priority 2001, dated 2006).

Assay [1] relates to KK-Ay mice. Nature of the assay: Effect in KK-Ay model mice of type-II diabetes mellitus (body weight, blood glucose). The note with it: for Blood Glucose Level / Mouse Body weight: diet with 0.04% pioglitazone or 0.5% curcumin, mean ± SD. Format: in vivo, mouse. Here is the method: KK-Ay mice, a model of genetically obese and type-II diabetic animals, were used to evaluate the effect of curcumin. Pioglitazone, a drug for treating diabetes mellitus, was used as a positive control.
KK-Ay mice (females, 6 weeks old) were divided into 3 groups (5 animals per group). By using a normal diet (product of Oriental Yeast Co. Ltd., Table 3) as a base feed, three types of feeds, i.e., a diet with out any additives, with pioglitazone and with curcumin, were prepared. Mice were placed in an environment in which they were freely accessible to a diet without any additives (control group), with pioglitazone (pioglitazone-added group) or with curcumin (curcumin-added group) for 4 weeks. Pioglitazone used was obtained by grinding Actos tablet 30 (30 mg pioglitazone per tablet, Takeda Chemical Industries Ltd.) in an agate mortar. The ground Actos tablet was then added to the normal diet at a dose of 0.04% pioglitazone. Curcumin was added to the normal diet at a dose of 0.5% curcumin.
During feeding, a small amount of blood was collected from the caudal vein of mice every week to determine blood glucose level using a simple bloodglucose level analyzer GLUTESTACE (Sanwa Kagaku Kenkyusho Co., Ltd.).

In assay [2] the target is T1, mouse PPARγ ligand binding domain (Mus musculus, UniProt P37238).
T1 construct: expressed in transfected cells; host or cells: CV-1 cells (African green monkey kidney)
T1 sequence (P37238 174-475 isoform P37238-2): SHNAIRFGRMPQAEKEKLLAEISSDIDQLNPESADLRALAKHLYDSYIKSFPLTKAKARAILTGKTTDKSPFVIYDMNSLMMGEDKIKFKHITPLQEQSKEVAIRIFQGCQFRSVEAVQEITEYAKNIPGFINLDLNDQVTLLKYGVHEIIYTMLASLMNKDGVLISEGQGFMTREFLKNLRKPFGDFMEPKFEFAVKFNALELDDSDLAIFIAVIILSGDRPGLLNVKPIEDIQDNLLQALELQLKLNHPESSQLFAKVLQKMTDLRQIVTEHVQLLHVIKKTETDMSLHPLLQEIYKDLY
Nature of the assay: PPARγ ligand activity: GAL4-mPPARγ LBD chimera luciferase reporter assay in CV-1 cells. The class given is cell-based. The note with it: for PPARγ ligand activities (dependence on concentration): 2-10 μg/ml; for PPARγ ligand activity: relative to untreated control (DMSO)=1.00, mean ± SD, n=4. Here is the method:
CV-1 cells (cultured cells derived from male African green monkey kidney) were inoculated into a 96-well culture plate at 6×10^3 cells/well, and incubated at 37° C. for 24 hours under 5% CO2 conditions. As a medium, DMEM (Dulbecco's Modified Eagle Medium, product of GIBCO) containing 10% FBS (fetal bovine serum), 10 ml/L penicillin-streptomycin (5000 IU/ml and 5000 μg/ml, respectively, product of GIBCO), 37 mg/L ascorbic acid (product of Wako Pure Chemical Industries, Ltd.) was used. Cells were washed with OPTI-MEM (product of GIBCO), a serum-free medium, and transfected with pM-mPPARγ and 4×USAg-luc using LIPOFECTAMINE PLUS™ (product of GIBCO), a reagent for transfection of genes using a cationic lipid. […] The 4×UASg-luc is a reporter plasmid incorporated luciferase gene with 4-time-repeated responsive element (UASg) of GAL4 ligated thereto at the upstream end thereof. At approximately 24 hours after the transfection, the medium was replaced by a medium containing each sample (n=4) and cells were incubated for an additional 2 hours. Each sample used was dissolved in dimethyl sulfoxide (DMSO) and DMSO was used as an untreated control sample. […] Cells were washed with Ca, Mg-containing phosphate buffered saline (PBS+) and added with LUCLITE™ (product of Packard), a reagent for determination of luminescence using luciferase. Then, the luminescent intensity by expressed luciferase was determined in a TOPCOUNT™ Microplate Scintillation/Luminescence Counter (product of Packard).
The luminescent intensity was determined in the control group in the same way as in the test groups, but using pM (a plasmid lacking PPARγ ligand binding domain gene) instead of pM-mPPARγ. The ratio (test group/control group) of the average luminescent intensity between the test and control groups (n=4) was determined for each sample, and the relative activity of test sample. against the untreated control sample was determined as the PPARγ ligand activity of the sample.
In general terms: Reporter assays use an easily measured gene product as a stand-in for the process of interest.

For assay [3], the system named is C57BL/6J mice. Nature of the assay: Effect in model mice of diet-induced obesity (adipose tissue weights). Format: in vivo, mouse. As to the method: C57BL/6J mice (females, 8 weeks old) were freely accessible to a high fat/high sugar diet (Oriental Yeast Co., Ltd., Table 6) for 8 weeks to obtain dietary obese animals. By using a normal diet (Oriental Yeast Co. Ltd., Table 3) as a base feed, two types of feeds, i.e., a diet without any additives and with 0.5% curcumin, were prepared. Next, said mice were divided into 2 groups (7 animals per group), and each group was freely accessible to a diet without any additives (control group) or with 0.5% curcumin (curcumin group) for 4 weeks. After an overnight fasting, mice were subjected to abdominal section under ether anesthesia to collect blood from the abdominal aorta, and then sacrificed. Then, adipose tissues were collected from the tissues around uterus, kidney and mesentery, and their weights were determined. The sum of the weights of periuterine, perirenal and mesenteric adipose tissues was determined as the total amount of intra-abdominal adipose tissue.

In assay [4] the test system is streptozotocin-induced diabetic rats. The note with it: diet containing 0.5% curcumin; cited from earlier work.
Assay [5] has as its system rats. The note with it: rats which received curcumin; cited from earlier work.
Setting [6] is: diet-induced obese C57BL/6J mice, 0.5% curcumin diet for 4 weeks, mean ± SD.

For `CCc1ccc(CCOc2ccc(CC3SC(=O)NC3=O)cc2)nc1` (stereo not drawn) [Pioglitazone, reference compound], the “Blood Glucose Level” value in assay [1] (After 1 week) amounted to 163 ± 23 mg/dL; in assay [1] (After 2 weeks) it was 182 ± 9 mg/dL; in assay [1] (After 3 weeks) it was 166 ± 18 mg/dL; in assay [1] (After 4 weeks), 153 ± 21 mg/dL; in assay [1] (Start of feeding), 151 ± 9 mg/dL. Besides, the “Mouse Body weight” value is reported as 36.7 ± 1.0 g in assay [1] (After 1 week); 39.9 ± 1.2 g in assay [1] (After 2 weeks); 42.3 ± 1.2 g in assay [1] (After 3 weeks); 43.8 ± 1.4 g in assay [1] (After 4 weeks); 26.9 ± 1.0 g in assay [1] (Start of feeding).
For `COc1cc(/C=C/C(=O)/C=C(O)/C=C/c2ccc(O)c(OC)c2)ccc1O` [Compound 1, Curcumin], the “PPARγ ligand activities (dependence on concentration)” value (shortened to “PPARγ ligand activities”) in assay [2] is “concentration-dependent”. The compound further returned a PPARγ ligand activity in assay [2] (added concentration 2 μg/ml) of 2.36 ± 0.94. The PPARγ ligand activity in assay [2] (added concentration 5 μg/ml) is 3.67 ± 1.06. Also, the PPARγ ligand activity in assay [2] (added concentration 10 μg/ml) is 4.16 ± 1.10. In addition, in assay [1] (4 weeks feeding), the “Elevation of blood glucose level compared with control group” value was “suppressed significantly” and the “Mouse body weight change compared with control group” value is given as “without any significant difference”. In addition, in assay [1] (After 1 week), the “Blood Glucose Level” value turned out to be 191 ± 18 mg/dL and the “Mouse Body weight” value is reported as 34.7 ± 1.1 g. In addition, in assay [1] (After 2 weeks), the “Blood Glucose Level” value is 222 ± 46 mg/dL and the “Mouse Body weight” value came out at 39.8 ± 0.7 g. In assay [1] (After 3 weeks), the “Blood Glucose Level” value was 348 ± 125 mg/dL and the “Mouse Body weight” value is 42.8 ± 0.9 g. In assay [1] (After 4 weeks), the “Blood Glucose Level” value turned out to be 344 ± 105 mg/dL and the “Mouse Body weight” value turned out to be 44.7 ± 1.0 g. Further, in assay [1] (Start of feeding), the “Blood Glucose Level” value was 139 ± 7 mg/dL and the “Mouse Body weight” value came to 25.5 ± 0.7 g. In addition, in assay [3], the “Body weight compared with control group” value is “no significant difference”; the “Weights of periuterine, perirenal, mesenteric and intra-abdominal adipose tissues compared with control group” value is “significantly reduced”. In assay [3] (setting [6]), the “Adipose tissue per body weight: Mesenteric adipose tissue (c)” value came to 0.39 ± 0.11 % by weight, the “Adipose tissue per body weight: Perirenal adipose tissue (b)” value is 0.46 ± 0.15 % by weight, the “Adipose tissue per body weight: Periuterine adipose tissue (a)” value was 0.8 ± 0.21 % by weight and the “Body weight after feeding” value is 22.9 ± 0.9 g. Besides, the “Adipose tissue per body weight: Intra-abdominal adipose tissue (a + b + c)” value in assay [3] (sum of periuterine, perirenal and mesenteric, diet-induced obese C57BL/6J mice, 0.5% curcumin diet for 4 weeks, mean ± SD) was 1.65 ± 0.42 % by weight. In assay [4], the “Cholesterol, triglyceride and phospholipid levels in blood” value is “reduced”; the “Renal lesions associated with diabetes mellitus” value is listed as “amelioration”. Moreover, in assay [5], the “Activity of acyl-CoA oxidase (β-oxidation promotive enzyme)” value is “enhanced” and the “Triglyceride accumulation in the liver” value was “inhibition”.
Turning to Demethoxycurcumin [Compound 2], in assay [2], the “PPARγ ligand activities” value is “concentration-dependent”. Besides, the PPARγ ligand activity in assay [2] (added concentration 2 μg/ml) worked out at 2.17 ± 0.39; in assay [2] (added concentration 5 μg/ml), 4.25 ± 0.77; in assay [2] (added concentration 10 μg/ml), 4.41 ± 0.35.
As for Bisdemethoxycurcumin [Compound 3], in assay [2], the “PPARγ ligand activities” value is listed as “concentration-dependent”. Further, the values for the PPARγ ligand activity in assay [2] (added concentration 2 μg/ml), in assay [2] (added concentration 5 μg/ml) and in assay [2] (added concentration 10 μg/ml) were 1.88 ± 0.33, 3.55 ± 0.38 and 4.08 ± 0.46, respectively.
